# From patent US20100248272A1, “Method for identifying Smk box riboswitch modulating compounds” (Cornell University, priority 2009, published 2010)
# Where “and” joins values, the source holds several entries; their conditions need not be identical. Equal values may be shown once. Entries after “also recorded” stand apart in the source; their conditions may differ.
# What was measured:
# [1] = tested on: E. faecalis metK-lacZ fusion WT; settings: cells grown in the presence of high methionine concentrations; previously shown; cited from earlier work
# [2] = tested on: E. faecalis metK-lacZ fusion U22G
# Procedure: (§1) In this experiment, in vivo lacZ reporter gene assays were conducted as previously described (R. T. Fuchs, et al., 2006, Ibid. and R. T. Fuchs, et al., 2007, Ibid.). Enterococcus faecalis metK leader region constructs, which included the first 15 nt of the coding region, were positioned downstream of the highly expressed B. subtilis glyQS promoter. The resulting DNA fragment was inserted into a lacZ fusion vector (pFG328) to generate an in-frame metK-lacZ translational fusion in which the first five codons of metK were fused to codon 18 of lacZ. The constructs were introduced into the chromosome of B. subtilis strain BR151 (metB10 lys-3trpC2) by integration into an SPβ prophage. Bacillus subtilis strains containing the lacZ fusions were grown at 37° C. in Spizizen minimal medium containing methionine ([…]) until early exponential growth. The cells were harvested by centrifugation at 8,000 g and resuspended in Spizizen medium either with or without methionine, and samples were collected at 1-h intervals and assayed for β-galactosidase activity after toluene permeabilization of the cells.
# [3] = tested on: E. faecalis metK-lacZ fusion U22G + A93C
# Procedure: as §1
# [4] = tested on: E. faecalis metK-lacZ fusion C24U + G91A
# Procedure: as §1
# [5] = tested on: E. faecalis metK-lacZ fusion WT
# Procedure: as §1
# [6] = tested on: E. faecalis metK-lacZ fusion A93C
# Procedure: as §1
# [7] = tested on: E. faecalis metK-lacZ fusion C24G
# Procedure: as §1
# [8] = tested on: E. faecalis metK-lacZ fusion C25U + G90A
# Procedure: as §1
# [9] = tested on: E. faecalis metK-lacZ fusion C24U
# Procedure: as §1
# [10] = tested on: E. faecalis metK-lacZ fusion C25U
# Procedure: as §1
# [11] = tested on: SMK box riboswitch; experiment: Competition binding assay SAM versus SAH; design: species or system E. faecalis; settings: >100-fold excess of SAH over SAM
# Description: FIGS. 6A, 6B. Effects of SMK box riboswitch mutagenesis on SAM binding and apparent SAM binding constant (Ka) determination. (A) Effects of mutation (with s.d.) on SAM binding by size-exclusion filtration assay, as described. (B) SAM and SAH Kd determination by competition binding assay.
# (§2) The Kd value for the full-length SMK transcript was further confirmed by fluorescence-quenching assays, as described below and shown in FIG. 11.
# [12] = tested on: wild-type 15-118 metK leader RNA (bipartite, 2-AP at A29); experiment: Kd measurement by 2-AP fluorescence quenching; format: binding, E. faecalis; settings: for quenching of 2-AP fluorescence: wild-type RNA
# Procedure: (§3) FIG. 11. […] Increasing concentrations of SAM were added to bipartite metK leader RNA containing an internal 2-AP modification at residue A29. 2-AP fluorescence at steady-state was measured at 375 nm with an excitation wavelength of 310 nm. […] Percent quenching (ΔF/F0×100) represents the change in fluorescence normalized to the initial fluorescence observed in the absence of SAM.
# (§4) For this, a bipartite RNA comprised of two half RNAs was used, which corresponds to positions 15-46 and 47-118. The two RNA halves are predicted to anneal through extensive base pairing in the P1-P3 helices to form the full-length metK leader RNA corresponding to positions 15-118, with a nick immediately upstream of residue G47 at the top of the P3 stein loop.
# (§5) A 2-aminopurine (2-AP) modification was incorporated into the upstream RNA at residue A29 to monitor local conformational changes occurring at this position in response to SAM binding using florescence spectroscopy.
# [13] = target: full-length E. faecalis metK RNA (wild-type 15-118 metK leader sequence); experiment: Apparent Kd determination by size-exclusion filtration (modified SAM binding assay); settings: full-length transcript, positions 15-118; [3H]-SAM
# Procedure: (§6) The apparent equilibrium dissociation constants (Kd values) for the wild-type 15-118 metK leader sequence and the 53-nucleotide crystallization construct were determined using a modified SAM binding assay (J. Tomsic, et al., J. Bacteriol., 190, 823-833 (2007)). Briefly, T7 RNA polymerase transcribed RNA (1 μM) in 1× transcription buffer was refolded as described above and incubated with [^3H]-SAM ranging in concentration from 0.02 to 10 μM. Binding reactions were loaded onto Nanosep 3K Omega filters (Pall Life Sciences) and centrifuged briefly at 14,000 g to avoid large volume changes. The concentration of the RNA-[^3H]-SAM complex retained by the filter and the unbound SAM present in the flow through were determined by scintillation counting of known volumes, and nonlinear regression analyses were performed using Kaleida-Graph Version 3.51 (Synergy Software). Apparent Kd values represent the averages of at least two independent experiments for each construct with a margin of error≦5%.
# as §2
# [14] = tested on: 30S ribosomal subunit on the SMK box mRNA; experiment: Ribosome toeprinting analysis; format: biochemical; settings: in the presence of ligand
# [15] = target: SMK6 crystallization construct (53-nucleotide SMK box riboswitch); experiment: Apparent Kd determination by size-exclusion filtration (modified SAM binding assay); design: species or system E. faecalis; settings: 53-nt crystallization construct SMK6; [3H]-SAM
# Procedure: as §6, §2
# [16] = tested on: E. faecalis SMK box A93C mutant RNA; settings: A93C mutation; cited from earlier work
# [17] = tested on: E. faecalis SMK box U22G A93C double mutant RNA; settings: cited from earlier work
# [18] = tested on: E. faecalis SMK box U22G mutant RNA; settings: U22G mutation; cited from earlier work
# [19] = tested on: U72C mutant metK leader RNA; experiment: 2-AP fluorescence quenching; format: binding, E. faecalis; settings: SAM concentrations up to 100 μM
# Procedure: as §3, §4, §5
# [20] = tested on: E. faecalis SMK box C76U mutant RNA; experiment: In vitro SAM binding assay (size-exclusion filtration); settings: C76U wobble mutation
# Description: (§7) DNA templates corresponding to positions 15-118 (relative to the predicted transcription start site) of the E. faecalis metK leader were constructed by ligating overlapping pairs of complementary oligonucleotides, including a T7 RNA polymerase promoter sequence, as previously described (M. R. Yousef, et al., RNA, 9, 1148-1156 (2003) and B. A., McDaniel, et al., Mol. Microbiol., 57, 1008-1021 (2005)). Ligated products were amplified by PCR and RNAs were synthesized by T7 RNA polymerase transcription using an AmpliScribe T7 High Yield Transcription Kit (Epicentre Biotechnologies). RNAs (3 μM) in 1× transcription buffer (F. J. Grundy, et al., Nucleic Acids Res., 30, 1646-1655 (2002)) were heated to 65° C. for 5 minutes and slow-cooled to 40° C., followed by addition of radiolabeled SAM (3 μM [methyl-3H]-SAM, 15 Ci mmol^−1; GE Healthcare) in a total reaction volume of 40 μL, Binding reactions were incubated at room temperature (20-25° C.) for 15 minutes followed by passage through a Nanosep 10K Omega filter (Pall Life Sciences) by centrifugation at 14,000 g for 2.5 minutes. Filters were washed four times with 40 μL 1× transcription buffer to remove unbound SAM, and material retained by the filter was collected, mixed with Packard BioScience Ultima Gold scintillation fluid, and counted in a Packard Tri-Carb 2100TR liquid scintillation counter. No SAM was retained by the filter in the absence of RNA.
# [21] = tested on: E. faecalis SMK box C25U G90A double mutant RNA; experiment: as above; settings: C25U G90A double mutation
# Description: as §7
# [22] = tested on: E. faecalis SMK box G90A mutant RNA; experiment: as above; settings: G90A mutation (C25•A90 mismatch)
# Description: as §7
# [23] = tested on: E. faecalis SMK box G88A mutant RNA; experiment: as above; settings: G88A mismatch mutation
# Description: as §7
# [24] = tested on: E. faecalis SMK box U65 deletion mutant RNA; experiment: as above
# Description: as §7
# [25] = tested on: E. faecalis SMK box U65C mutant RNA; experiment: as above; settings: U65C mutation
# Description: as §7
# [26] = tested on: E. faecalis SMK box G26A mutant RNA; experiment: as above
# Description: as §7
# [27] = tested on: E. faecalis SMK box C24U G91A double mutant RNA; experiment: as above; settings: C24U G91A double mutation
# Description: as §7
# [28] = tested on: E. faecalis SMK box U72C mutant RNA; experiment: as above
# Description: as §7
# [29] = tested on: E. faecalis SMK box A73G mutant RNA; experiment: as above; settings: A73G mutation
# Description: as §7
# [30] = tested on: E. faecalis SMK box RNA with poly(A)6 linker and G88 and G89 mutated to adenosine; experiment: as above; settings: poly(A)6 linker plus G88 and G89 to adenosine
# Description: as §7
# [31] = tested on: E. faecalis SMK box C76U G88A mutant RNA; experiment: as above; settings: C76U and G88A combined
# Description: as §7
# [32] = tested on: E. faecalis SMK box C24G mutant RNA; experiment: as above; settings: C24G mutation
# Description: as §7
# [33] = tested on: E. faecalis SMK box RNA with linker region replaced by poly(A)6; experiment: as above; settings: 11-nt linker replaced with poly(A)6
# Description: as §7
# [34] = tested on: E. faecalis SMK box C25U mutant RNA; experiment: as above
# Description: as §7
# [35] = Spizizen medium with methionine
smiles,measurement,setting,value
"CSCC[C@H](N)C(=O)O [Met, methionine]",reduction in expression of lacZ reporter,[1],five
same,Ratio (−Met/+Met),[2],1.4
same,"Expression of metK-lacZ fusion, +Met (β-galactosidase activity)",[2]; [35],160 +/− 13
same,Ratio (−Met/+Met),[3],4.4
same,"Expression of metK-lacZ fusion, +Met (β-galactosidase activity)",[3]; [35],2.5 +/− 0.72
same,Ratio (−Met/+Met),[4],1.5
same,"Expression of metK-lacZ fusion, +Met (β-galactosidase activity)",[4]; [35],15 +/− 2.9
same,Ratio (−Met/+Met),[5],5.0
same,"Expression of metK-lacZ fusion, +Met (β-galactosidase activity)",[5]; [35],24 +/− 5.5
same,Ratio (−Met/+Met),[6],1.8
same,"Expression of metK-lacZ fusion, +Met (β-galactosidase activity)",[6]; [35],42 +/− 1.0
same,Ratio (−Met/+Met),[7],1.2
same,"Expression of metK-lacZ fusion, +Met (β-galactosidase activity)",[7]; [35],95 +/− 6.1
same,Ratio (−Met/+Met),[8],0.95
same,"Expression of metK-lacZ fusion, +Met (β-galactosidase activity)",[8]; [35],82 +/− 16
same,Ratio (−Met/+Met),[9],1.6
same,"Expression of metK-lacZ fusion, +Met (β-galactosidase activity)",[9]; [35],200 +/− 22
same,Ratio (−Met/+Met),[10],2.8
same,"Expression of metK-lacZ fusion, +Met (β-galactosidase activity)",[10]; [35],80 +/− 5.0
"Nc1ncnc2c1ncn2[C@@H]1O[C@H](CSCC[C@H](N)C(=O)O)[C@@H](O)[C@H]1O [SAH, S-adenosyl-L-homocysteine]",competition by unlabeled SAH,[11],no competition
same,quenching of 2-AP fluorescence,[12],not observed
"C[S+](CC[C@H](N)C(=O)[O-])C[C@H]1O[C@@H](n2cnc3c(N)ncnc32)[C@H](O)[C@@H]1O (some centres unmarked) [SAM, S-adenosyl methionine]",Kd,[13],850 nM
same,correct positioning of the 30S ribosomal subunit on the SMK box mRNA,[14],reduced
same,Kd,[15],570 nM
same,SAM binding in vitro,[16],loss of SAM binding
same,Kd,"[12]; 2-AP fluorescence, excitation 310 nm, emission 375 nm, read-out: apparent Kd",1030 nM and 1000 nM
same,quenching of 2-AP fluorescence,[12],concentration-dependent quenching
same,SAM binding,[17],restores SAM binding
same,SAM binding in vitro,[18],loss of SAM binding
same,quenching of 2-AP fluorescence,[19],No quenching; also recorded: no substantial change in fluorescence
same,SAM binding activity retained,[20],59%
same,SAM binding activity,[21],loss of SAM binding activity
same,"SAM binding activity, of the wild type",[22],1.3%
same,reduction in SAM binding activity,[23],75 fold
same,decrease in SAM binding activity,[24],20 fold
same,decrease in SAM binding activity,[25],5 fold
same,reduction of SAM binding,[26],five
same,SAM binding,[27],restored SAM binding
same,SAM binding in the filtration assay,[28]; U72C RNA,loss of SAM binding
same,decrease in SAM binding activity,[28]; U72C mutation,70 fold
same,reduction in SAM binding activity,[29],80 fold
same,SAM binding,[30],dramatically reduced
same,"SAM binding, of the wild-type level",[31],32%
same,SAM binding,[32],loss of SAM binding
same,SAM binding activity,[33],did not affect
same,SAM binding activity,[34]; C25U mutation (U25-G90 wobble pair),63%
same,SAM binding in vitro,[34]; C25U substitution,modest reduction
